PubChem BioAssay (NCI)
Where “and” joins values, the source holds several entries; their conditions need not be identical. Equal entries are not always repeated.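 A five-concentration, 48-hour dose response in 96-well plates underlies each endpoint, interpolated linearly between surrounding concentrations. GI50 is the concentration that inhibits growth by half. TGI is the concentration that stops growth completely.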 Calls of active or inactive are those of the source. Rule as the data show it: active = GI50 below about 0.43 µM; inactive = the rest.

Legend:
Experiment in all cases: NCI-60 cell line screen, 48 h
[1] = test system: SF-268 CNS
[2] = test system: SK-MEL-5 melanoma
[3] = test system: BT-549 breast
[4] = test system: HS 578T breast
[5] = test system: DU-145 prostate
[6] = test system: RPMI-8226 leukemia
[7] = test system: NCI/ADR-RES ovarian
[8] = test system: MALME-3M melanoma

| SMILES | GI50 [1] [µM] | TGI [1] | GI50 [2] [µM] | TGI [2] | GI50 [3] [µM] | TGI [3] | GI50 [4] [µM] | TGI [4] | GI50 [5] [µM] | GI50 [6] [µM] | TGI [6] [µM] | GI50 [7] [µM] | TGI [7] [µM] | GI50 [8] [µM] | TGI [8] | TGI [5] | outcome [1] | outcome [4] | outcome [5] |
| --- | --- | --- | --- | --- | --- | --- | --- | --- | --- | --- | --- | --- | --- | --- | --- | --- | --- | --- | --- |
| Cc1ccc(C(=O)N(CCCN)C(c2oc3cc(Cl)ccc3c(=O)c2Cc2ccccc2)C(C)C)cc1 (centres undefined) | < 0.01 | 1.69 µM | < 0.01 | 1.68 µM | < 0.01 | 2.03 µM | < 0.01 | 1.46 µM | < 0.01 | < 0.01 | 1.46 | 0.11 | 1.17 | 1.3 | 3.09 µM | – | – | – | – |
| Cc1cc(Cl)cc2c1NC(=O)C2(O)CC(=O)c1ccco1 (centres undefined) | – | > 100 µM | – | 51.5 µM | – | > 100 µM | – | > 100 µM | – | – | > 83.7 | – | > 100 | – | > 76.1 µM | > 100 µM | – | – | – |
| COc1cc2cc(Oc3ccc(NC(=O)Nc4ccc(Cl)c(C(F)(F)F)c4)cc3)c(C)nc2cc1OCCN1CCOCC1 | 2.59 | 8.44 µM | 1.14 | 2.37 µM | 2.63 | 9.33 µM | 1.83 | 5.11 µM | 2.69 | 0.936 | 4.34 | 2.34 | 12.6 | 1.52 | 3.27 µM | 13.8 µM | – | – | – |
| O=C(CCc1nnc2sc(-c3ccc(Cl)cc3Cl)nn12)c1nc2ccccc2[nH]1 | 0.994 | 2.85 µM | 1.26 | 2.51 µM | 2.14 | 4.99 µM | 2.23 | 8.29 µM | 1.15 | 0.422 | 2.63 | 1.42 | 6.15 | 0.821 | 3.52 µM | 2.38 µM | – | – | – |
| C#CCNC(=O)c1cccc2c1cc(C)n2-c1nc2c(c(NCc3ccccc3)n1)CCCC2 | 0.0257 | 0.0771 µM | 0.00886 | 0.0235 µM | 0.0265 | 0.0643 µM | 0.0321 | 0.954 µM | 0.0298 | 0.0107 | 0.0537 | 0.0281 | 0.101 | 0.00311 | 0.0114 µM | 0.108 µM | – | – | – |
| COc1ccc(C(=O)C#Cc2cnc(OC)nc2OC)cc1 | – | 7.41 µM | 25600 | – | 25400 | – | – | 27.7 µM | – | 40100 | 5.2 | – | 79000 | 16600 | – | 4.86 µM | inactive | inactive | inactive |
| CS(=O)(=O)CCNCc1ccc(-c2ccc3ncnc(Nc4ccc(OCc5ccccc5)cc4)c3c2)o1 | 9.14 | > 25 µM | 3.72 | 7.11 µM | 5.85 | 17.5 µM | 6.43 | > 20.5 µM | 5.3 | 5.38 | > 16.8 | 6.71 | > 25 | 4.99 | 11.1 µM | > 25 µM | – | – | – |
| COc1ccc2c(c1)C(=O)c1c-2n(CCCn2ccnc2)c(=O)c2cc([N+](=O)[O-])ccc12 | < 0.01 | > 75.5 µM | < 0.01 | < 0.01 µM | < 0.0134 | 0.744 µM | 2.1 | > 29 µM | < 0.01 | 0.0653 | 0.515 | < 0.01 | 0.192 | < 0.0197 | 10.8 µM | < 0.0294 µM | – | – | – |
| COC(=O)Nc1nc2ccc(Oc3ccc(NC(=O)Nc4cc(C(F)(F)F)ccc4F)cc3)cc2s1 | 8.5 | > 25 µM | > 25 | > 25 µM | > 25 | > 25 µM | 6.21 | > 25 µM | 10.6 | > 25 | > 25 | 14.5 | > 25 | 0.343 | > 25 µM | > 25 µM | – | – | – |
| O=C1c2cccc([N+](=O)[O-])c2C(=O)N1c1ncn[nH]1 | – | > 100 µM | – | > 100 µM | – | 90 µM | – | > 100 µM | – | – | > 100 | – | > 100 | – | > 100 µM | > 100 µM | – | – | – |
| CCCCCCCCn1ccc2cc(NC(=O)Cn3cc(CN4CCCC4)nn3)ccc21 | 1.78 | 3.57 µM | 1.79 | 3.18 µM | 1.65 | 3.39 µM | 1.91 | 4.74 µM | 3.12 | 2.18 | 5.17 | 2.08 | 4.49 | 1.52 | 2.89 µM | 9.61 µM | – | – | – |
| Cc1ccc(C(=O)NC(C)C)cc1-c1ccc(C(=O)NCC2CC2)cc1 | > 25 | > 25 µM | > 25 | > 25 µM | > 25 | > 25 µM | > 25 | > 25 µM | > 25 | > 25 | > 25 | > 25 | > 25 | > 25 | > 25 µM | > 25 µM | – | – | – |
| COc1ccc(-c2nc(-c3nc4ccc(Cl)cc4[nH]3)c3ccccn23)cc1 | 2.93 | 9.07 µM | 4.27 | 27.8 µM | 2.74 | 6.63 µM | 2.76 | 8.06 µM | 3.27 | 3.55 | 58.3 | 2.78 | 9.2 | 2.35 | 5.57 µM | 11.1 µM | – | – | – |
| O=C(Nc1ccncc1)C(=O)c1cn(S(=O)(=O)c2cccc(F)c2)c2ccccc12 | 10.9 | > 100 µM | 2.83 | 37.7 µM | 2.29 | 86.8 µM | 8.31 | > 100 µM | 6.2 | 1.58 | > 100 | 1.16 | 4.66 | 12.8 | > 100 µM | > 100 µM | – | – | – |
| COc1ccc2c(c1)CCCN2c1c2ccccc2nc2ccccc12 | 0.933 | > 100 µM | 0.35 | 1.66 µM | 0.49 | 6.28 µM | 0.314 | 5.86 µM | 0.38 | 0.431 | 4.98 | 0.275 | 0.771 | 4.26 | > 100 µM | > 100 µM | – | – | – |
| Nc1nc2c(nnn2C2CC(O)C(CO)O2)c(=O)[nH]1 (centres undefined) | 7.99 | > 100 µM | 14.7 | > 89 µM | 4.14 | > 59.9 µM | > 33.9 | > 95.7 µM | 1.45 | 2.65 | > 100 | 3.08 | > 100 | 5.53 | > 100 µM | > 100 µM | – | – | – |
| O=C1C(Cl)=C(NCCN2CCOCC2)C(=O)c2ncccc21 | 3.8 | 4.27 µM and 15.5 µM | 1.72 | 2.32 µM and 3.16 µM | – | 3.21 µM and 3.03 µM | 3.39 | 4.97 µM and 19 µM | – | 2.72 | 9.23 | 4.6 | 30.8 | 1.13 | 3.07 µM and 2.63 µM | 3.11 µM and 3.14 µM | – | – | – |
| CC[C@@]1(c2ccccc2)C2=C(CC(C)(C)CC2=O)Nc2[nH]ncc21 | > 100 | > 100 µM | > 100 | > 100 µM | > 100 | > 100 µM | 96.4 | > 100 µM | > 100 | > 100 | > 100 | > 100 | > 100 | > 100 | > 100 µM | > 100 µM | – | – | – |
| O=C(O)CCNC1CCCCC1 | > 100 | > 100 µM | > 100 | > 100 µM | > 100 | > 100 µM | > 100 | > 100 µM | > 100 | > 100 | > 100 | > 100 | > 100 | > 100 | > 100 µM | > 100 µM | – | – | – |
| COc1cc2ncn(-c3cc(OCc4cccs4)c(C(N)=O)s3)c2cc1OC | 1.95 | > 25 µM | 1.94 | > 25 µM | 4.67 | > 25 µM | 5.94 | > 25 µM | 0.935 | 3.24 | > 25 | 2.22 | > 25 | 2.5 | > 25 µM | > 8.22 µM | – | – | – |
| O=C(O)C(=Cc1ccc(-c2ccccc2)cc1)C(=O)O | – | > 59.3 µM | – | 23.9 µM | – | 29.4 µM | – | > 100 µM | – | – | 20.6 | – | > 94 | – | 39.7 µM | > 39 µM | – | – | – |
| COc1cc[nH]c1/C=C1\C(=O)Nc2ccc(F)c(C#CC3(O)CCNCC3)c21 | 0.196 | 0.848 µM | 0.24 | 0.968 µM | 0.318 | 0.696 µM | 0.0754 | 1.54 µM | 0.0429 | 0.372 | 1.23 | 2.11 | 8.24 | 0.405 | 1.11 µM | 2.14 µM | – | – | – |
| CCN(CC)CCCC(C)Nc1c2ccc(Cl)cc2nc2ccc(O)cc12 (centres undefined) | 2.04 | 11.3 µM | 1.73 | 3.12 µM | 5.38 | 18.3 µM | 1.68 | 5.55 µM | 2.26 | 2.4 | 6.76 | 11 | 26.4 | 1.42 | 2.87 µM | 8.39 µM | – | – | – |
| COc1cc(C(=O)CBr)c(OC)cc1C | – | > 100 µM | – | > 100 µM | – | > 100 µM | – | > 100 µM | – | – | > 100 | – | > 100 | – | > 100 µM | > 100 µM | – | – | – |
| CC/C=C\C[C@@H](O)C/C=C1/C(=O)C=C[C@H]1C/C=C\CCCC(=O)OC | 3.92 | 15.3 µM | 1.77 | 3.25 µM | 2.94 | 8.81 µM | 4.06 | 26.2 µM | 3.33 | 1.83 | 7.4 | 3.38 | 19.7 | 2.87 | 9.3 µM | 12.3 µM | – | – | – |
| Cc1cc2c(cc1Cl)SC1=NN(C)S(=O)N1S2(=O)=O (centres undefined) | > 100 | > 100 µM | > 100 | > 100 µM | > 100 | > 100 µM | > 100 | > 100 µM | > 100 | > 100 | > 100 | > 100 | > 100 | > 100 | > 100 µM | > 100 µM | – | – | – |
| Cn1c2ccccc2c2ccc3c(c21)C(=O)c1ccccc1C3=O | – | 66.6 µM | – | 30.2 µM | – | 50.9 µM | – | 46.6 µM | – | – | 36.1 | – | 45.4 | – | 24.5 µM | > 100 µM | – | – | – |
| C[N+]1=C(/C=C/c2ccc(O)c3ncccc23)C(C)(C)c2ccccc21 | 2.73 | 14.1 µM | 2.26 | 5.71 µM | 2.64 | 10.3 µM | 2.14 | 8.14 µM | 2.98 | 2.48 | 10.3 | 0.634 | 6.08 | 2.01 | 5.43 µM | 12.1 µM | – | – | – |
| O=C(O)c1nn(-c2ccccc2-c2n[nH]c(=O)[nH]c2=O)c(=O)[nH]c1=O | – | > 100 µM | – | > 100 µM | – | > 100 µM | – | > 100 µM | – | – | > 100 | – | > 100 | – | > 100 µM | > 100 µM | – | – | – |
